We go through 13 compounds from patent US12269800B2, “Delivery of therapeutic alkaloid compounds” (priority 2021, dated 2025).

Molecules are shown by their SMILES. Where “and” joins values, the source holds several entries; their conditions need not be identical. Equal entries are not always repeated.

This series is described as follows: Hydrolysis Assay of Example A2, Condition 1 (SGF with pepsin, pH 1.5, 37° C.). It is filed as physicochemical. The settings on record: for Condition 1 Conversion (%), second value of a/b: value after the slash.
Setting [1] is: SGF with pepsin pH 1.5, 37° C., 0.5 mM, time 1 min.
[2] abbreviates: SGF with pepsin pH 1.5, 37° C., 0.5 mM, time 5 min.
The mark [3] stands for this setting: SGF with pepsin pH 1.5, 37° C., 0.5 mM, time 30 min.
[4] abbreviates: SGF with pepsin pH 1.5, 37° C., 0.5 mM, time 1 h.
Where [5] appears, read: SGF with pepsin pH 1.5, 37° C., 0.5 mM, time 4 h.
[6] abbreviates: SGF with pepsin pH 1.5, 37° C., 0.5 mM, time 24 h.
The mark [7] stands for this setting: SGF with pepsin pH 1.5, 37° C., time 1 h.
Where [8] appears, read: SGF with pepsin pH 1.5, 37° C., time 4 h.
[9] abbreviates: SGF with pepsin pH 1.5, 37° C., time 24 h.
Setting [10] is: SGF with pepsin pH 1.5, 37° C., time 30 min.

On to `COc1ccc([C@]23CCN(C)[C@H]2CC2(CC3)OCCS2)cc1OC` (stereo partly shown) [Compound 69], for which the “Condition 1 Conversion (%)” value is, setting by setting: under setting [1], 0%; under setting [2], 0%; under setting [3], 0%; under setting [4], 0%; under setting [5], 0%; under setting [6], 0%.
In the case of `COc1ccc([C@@]23CCN(C)[C@@H]2CC2(CC3)OCCS2)cc1OC` (stereo partly shown) [Compound 070], the “Condition 1 Conversion (%)” value came to 0% under setting [1]; 0% under setting [2]; 0% under setting [3]; 0% under setting [4]; 0% under setting [5]; 0% under setting [6].
Regarding `COc1ccc([C@]23CCN(C)[C@H]2CC2(CC3)OC[C@@H](c3ccccc3)O2)cc1OC` (stereo partly drawn) [Compound 081, (3′aS,4R,7′aS)-3′a-(3,4-dimethoxyphenyl)-1′-methyl-4-phenyl-spiro[1,3-dioxolane-2,6′-2,3,4,5,7,7a-hexahydroindole]], the “Condition 1 Conversion (%)” value is 0% under setting [1]; 0% under setting [2]; 0% under setting [3]; 0% under setting [4]; 0% under setting [5]; 0% under setting [6].
For `COc1ccc([C@]23CCN(C)[C@H]2CC2(CC3)OC[C@H](c3cccnc3)O2)cc1OC` (stereo partly drawn) [Compound 109, (3′aS,7′aS)-3′a-(3,4-dimethoxyphenyl)-1′-methyl-4-(3-pyridyl)spiro[1,3-dioxolane-2,6′-2,3,4,5,7,7a-hexahydroindole]], the “Condition 1 Conversion (%)” value came to 0% under setting [1]; 0% under setting [2]; 0% under setting [3]; 0% under setting [4]; 0% under setting [5]; 0% under setting [6].
Consider `COc1ccc([C@]23CCN(C)[C@H]2CC2(CC3)OCC(c3ccncc3)O2)cc1OC` (stereo partly drawn) [Compound 110, (3′aS,7′aS)-3′a-(3,4-dimethoxyphenyl)-1′-methyl-4-(4-pyridyl)spiro[1,3-dioxolane-2,6′-2,3,4,5,7,7a-hexahydroindole]], for which the “Condition 1 Conversion (%)” value is, setting by setting: under setting [1], 0%; under setting [2], 0%; under setting [3], 0%; under setting [4], 0%; under setting [5], 0%; under setting [6], 0%.
Take `COc1cccc(C2COC3(CC[C@@]4(c5ccc(OC)c(OC)c5)CCN(C)[C@H]4C3)O2)c1` (stereo partly drawn) [Compound 111, (3′aS,7′aS)-3′a-(3,4-dimethoxyphenyl)-4-(3-methoxyphenyl)-1′-methyl-spiro[1,3-dioxolane-2,6′-2,3,4,5,7,7a-hexahydroindole]]: the “Condition 1 Conversion (%)” value reads like this: under setting [1], 0%; under setting [2], 0%; under setting [3], 0%; under setting [4], 0%; under setting [5], 0%; under setting [6], 0%.
Take `COc1ccc([C@]23CCN(C)[C@H]2CC2(CC3)OCC(c3cccc([N+](=O)[O-])c3)O2)cc1OC` (stereo partly drawn) [Compound 113, (3′aS,7′aS)-3′a-(3,4-dimethoxyphenyl)-1′-methyl-4-(3-nitrophenyl)spiro[1,3-dioxolane-2,6′-2,3,4,5,7,7a-hexahydroindole]]: the “Condition 1 Conversion (%)” value under setting [1] worked out at 0%; the “Condition 1 Conversion (%)” value under setting [2] is given as 0%; the “Condition 1 Conversion (%)” value under setting [3] is 0%; the “Condition 1 Conversion (%)” value under setting [4] is reported as 0%; the “Condition 1 Conversion (%)” value under setting [5] was determined as 0%; the “Condition 1 Conversion (%)” value under setting [6] turned out to be 0%.
For `COc1ccc([C@@]23CCC(=NNCCc4ccccc4)C[C@@H]2N(C)CC3)cc1OC` [Compound 159, N-[[(3aS,7aS)-3a-(3,4-dimethoxyphenyl)-1-methyl-2,3,4,5,7,7a-hexahydroindol-6-ylidene]amino]-2-phenyl-ethanamine], for the setting “pH 1.5”, the “Condition 1 Conversion (%)” value was 77% and 91% and 100% (2×).
`COc1ccc([C@@]23CCC(=NNC(N)=O)C[C@@H]2N(C)CC3)cc1OC` [Compound 197, [[(3aS,7aS)-3a-(3,4-dimethoxyphenyl)-1-methyl-2,3,4,5,7,7a-hexahydroindol-6-ylidene]amino]urea]: under “pH 1.5”, the “Condition 1 Conversion (%)” value came out at 0%.
Turning to `COc1ccc([C@@]23CCC(=NOCC(=O)OC(C)(C)C)C[C@@H]2N(C)CC3)cc1OC` [Compound 202, tert-butyl 2-[[(3aS,7aS)-3a-(3,4-dimethoxyphenyl)-1-methyl-2,3,4,5,7,7a-hexahydroindol-6-ylidene]amino]oxyacetate], the “Condition 1 Conversion (%)” value is on record as 1.12% under setting [4], 3.01% under setting [5] and 64.4% under setting [6]. The “Condition 1 Conversion (%), second value of a/b” value under setting [7] was determined as 0%; the “Condition 1 Conversion (%), second value of a/b” value under setting [8] worked out at 6.42%; the “Condition 1 Conversion (%), second value of a/b” value under setting [9] is given as 6.42%.
Take `COc1ccc([C@@]23CC/C(=N\OC(C)(C)OC)C[C@@H]2N(C)CC3)cc1OC` [Compound 204, (E,3aS,7aS)-3a-(3,4-dimethoxyphenyl)-N-(1-methoxy-1-methyl-ethoxy)-1-methyl-2,3,4,5,7,7a-hexahydroindol-6-imine]: the “Condition 1 Conversion (%)” value under setting [1] stood at 100%; the “Condition 1 Conversion (%)” value under setting [2] turned out to be 100%; the “Condition 1 Conversion (%)” value under setting [3] stood at 0%; the “Condition 1 Conversion (%)” value under setting [4] was found to be 0%; the “Condition 1 Conversion (%)” value under setting [5] is 0%; the “Condition 1 Conversion (%)” value under setting [6] is listed as 0%. The “Condition 1 Conversion (%), second value of a/b” value runs as follows: (SGF with pepsin pH 1.5, 37° C., time 1 min) 0%; (SGF with pepsin pH 1.5, 37° C., time 5 min) 0%; under setting [10], 100%; under setting [7], 100%; under setting [8], 100%; under setting [9], 100%.
With `COc1ccc([C@@]23CCC(=NOC4CCCCO4)C[C@@H]2N(C)CC3)cc1OC` (stereo partly drawn) [Compound 206, (3aS,7aS)-3a-(3,4-dimethoxyphenyl)-1-methyl-N-tetrahydropyran-2-yloxy-2,3,4,5,7,7a-hexahydroindol-6-imine], the “Condition 1 Conversion (%)” value reads like this: under setting [3], 1.41%; under setting [4], 7.83%; under setting [5], 0%; under setting [6], 0%. The “Condition 1 Conversion (%), second value of a/b” value runs as follows: under setting [10], 0%; under setting [7], 2.57%; under setting [8], 77.75%; under setting [9], 100%.
Consider `COc1ccc([C@]23CCN(C)[C@H]2CC2(CC3)OCC(C)O2)cc1OC` (stereo partly drawn) [Compound 211, (3′aS,7′aS)-3′a-(3,4-dimethoxyphenyl)-1′,4-dimethyl-spiro[1,3-dioxolane-2,6′-2,3,4,5,7,7a-hexahydroindole]], for which the “Condition 1 Conversion (%)” value reads like this: under setting [1], 0%; under setting [2], 0%; under setting [3], 0%; under setting [4], 0%; under setting [5], 0%; under setting [6], 0%.
